This is an account of results in BindingDB's records for doi:10.1016/s0960-894x(01)00776-4 (Wyeth-Ayerst Research, 2002).

Each structure is given as a SMILES string. pIC50: −log10 of the molar value.

The nature of the assay: Inhibition of Src-transformed fibroblast cell proliferation.

As for `COc1cc(Nc2c(C#N)cnc3cc(OC)c(OC)cc23)c(C)cc1Cl`, the pIC50 (usually −log10 of the IC50, conventionally taken in molar units) is 5.62.
